Where two headings read alike, the source gives them in different places.
Biological target: T1, fatty acyl CoA: cholesterol acyl transferase (ACAT) (Rattus norvegicus, UniProt O70536)
T1 construct: The supernatant, containing the microsomal fraction, served as the source of the cholesterol-esterifying enzyme; from tissue; host or cells: rat adrenals, supernatant of 1,000 x g centrifugation containing the microsomal fraction
T1 sequence (O70536 1-545): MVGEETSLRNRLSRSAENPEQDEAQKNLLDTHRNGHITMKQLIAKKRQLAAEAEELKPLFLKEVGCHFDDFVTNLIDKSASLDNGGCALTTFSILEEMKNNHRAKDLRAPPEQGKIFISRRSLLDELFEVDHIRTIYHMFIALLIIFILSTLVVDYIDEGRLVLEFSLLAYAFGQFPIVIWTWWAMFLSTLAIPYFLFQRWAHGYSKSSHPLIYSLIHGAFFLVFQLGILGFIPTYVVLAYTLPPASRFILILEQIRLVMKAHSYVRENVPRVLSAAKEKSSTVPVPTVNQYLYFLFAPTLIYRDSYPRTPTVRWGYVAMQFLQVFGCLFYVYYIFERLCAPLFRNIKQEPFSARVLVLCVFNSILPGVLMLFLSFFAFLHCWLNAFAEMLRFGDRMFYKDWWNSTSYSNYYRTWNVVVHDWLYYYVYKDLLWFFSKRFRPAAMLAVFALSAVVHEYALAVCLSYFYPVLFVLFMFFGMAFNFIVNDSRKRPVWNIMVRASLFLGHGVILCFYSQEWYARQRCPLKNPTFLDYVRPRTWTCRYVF
Assay: Inhibition of fatty acyl CoA:cholesterol acyl transferase (ACAT), rat adrenal enzyme
Format: biochemical
Description: The compounds of the present invention were assayed for two types of biological activity related to their potential use as antiatherosclerotic agents. Compounds were tested in vitro for the ability to inhibit the enzyme fatty acyl CoA: cholesterol acyl transferase (ACAT) and in vivo for serum hypolipidemic activity as meausred by the ability to inhibit lipid absorption in rats.
The compounds were tested for their ability to inhibit ACAT according to the following procedure: rat adrenals were homogenized in 0.2M monobasic potassium phosphate buffer, pH 7.4, and centrifuged at 1,000 times gravity for 15 minutes at 5° C. The supernatant, containing the microsomal fraction, served as the source of the cholesterol-esterifying enzyme, fatty acyl CoA:cholesterol acyl transferase (ACAT). A mixture comprising 50 parts of adrenal supernatant, 10 parts of bovine serum albumin (50 mg/ml), 3 parts of test compound (final concentration 5.2 μg/ml), and 500 parts of buffer was preincubated at 37° C. for 10 minutes. After treatment with 20 parts of oleoyl CoA (^14 C-0.4 μCi), the mixture was incubated at 37° C. for 10 minutes. A control mixture, omitting the test compound, was prepared and treated in the same manner. The lipids from the incubation mixture was extracted into an organic solvent and separated by thin-layer chromatography. The cholesteryl ester fraction was counted in a scintillation counter. This procedure is a modification of that described by Hashimoto, et al., Life Scie., 12 (Part II), 1-12 (1973).
Compounds which produced statistically significant inhibition of the ACAT enzyme are considered to be active.
In addition to the above described test and the results given in terms of percent inhibition, various compounds of this invention were tested by the same procedure at several concentrations. The results of this test are given in Table II in terms of IC50 (μM), that concentration which produced 50% inhibition of the ACAT enzyme.

[1] = rat adrenal ACAT, final concentration 5.2 μg/ml, read-out: % Inhibition

inhibition at 5.2 µg/mL [1] [%] | Structure (SMILES) | other results
84.5 | CCCCN(Cc1ccccc1)C(=O)Nc1cccc(Cl)c1OC [1-Benzyl-1-( -n-butyl)-3-(3-chloro-2-methoxyphenyl)urea] | 
97.1 | COc1ccc(OC)c(CCN(Cc2cccc(Cl)c2)C(=O)Nc2ccc(C)cc2C)c1 [1-[2-(2,5-Dimethoxyphenyl)ethyl]-1-(3-chlorobenzyl)-3-(2,4-dimethylphenyl)urea] | 
88.6 | CCCCN(Cc1ccccc1)C(=O)Nc1cccc(Cl)c1 [1-Benzyl-1-(n-butyl)-3-(3-chlorophenyl)urea] | 
85.7 | CCCCN(Cc1ccccc1)C(=O)Nc1cccc(C(F)(F)F)c1 [1-Benzyl-1-( -n-butyl)-3-(3-trifluoromethylphenyl)urea] | 
80.6 | CCCCN(Cc1ccccc1)C(=O)Nc1cc(Cl)ccc1OC [1-Benzyl-1-( -n-butyl)-3-(5-chloro-2-methoxyphenyl)urea] | 
7.8 | Cc1ccc(NC(=O)N(CCc2cccc(C(F)(F)F)c2)Cc2ccccc2Cl)c(C)c1 [1-[2-(3-Trifluoromethylphenyl)ethyl]-1-(2-chlorobenzyl)-3-(2,4-dimethylphenyl)urea] | 
57.4 | COc1ccc(CCN(Cc2ccc(F)cc2)C(=O)Nc2ccc(C)cc2C)cc1OC [1-[2-(3,4-Dimethoxyphenyl)ethyl]-1-(4-fluorobenzyl)-3-(2,4-dimethylphenyl)urea] | 
34.9 | CCOc1ccc(CCN(Cc2ccc(C)cc2C)C(=O)Nc2ccc(C)cc2C)cc1 [1-[2-(4-Ethoxyphenyl)ethyl]-1-(2,4-dimethylbenzyl)-3-(2,4-dimethylphenyl)urea] | 
80.3 | CCCCCCCCCCCCCCN(Cc1ccccc1)C(=O)Nc1ccc(C)cc1C [1-(n-Tetradecyl)-1-benzyl-3-(2,4-dimethylphenyl)urea] | 
93 | Cc1ccc(NC(=O)N(Cc2ccccc2)C(Cc2ccccc2)c2ccc(OCc3ccccc3)cc2)c(C)c1 (stereo not drawn) [1-Benzyl-1-[1-(4-benzyloxyphenyl)-2-phenylethyl]-3-(2,4-dimethylphenyl)urea] | 
93.5 | CCCCc1ccc(CN(Cc2ccccc2)C(=O)Nc2ccc(Oc3ccccc3)cc2)cc1 [1-Benzyl-1-(4-n-butylbenzyl)-3-(4-phenoxyphenyl)urea] | 
94.1 | CCOc1ccc(CCN(Cc2ccccc2Cl)C(=O)Nc2ccc(C)cc2C)cc1 [1-[2-(4-Ethoxyphenyl)ethyl]-1-(2-chlorobenzyl)-3-(2,4-dimethylphenyl)urea] | 
95.7 | Cc1cccc(CCN(Cc2cccc([N+](=O)[O-])c2)C(=O)Nc2ccc(C)cc2C)c1 [1-[2-(3-Methylphenyl)ethyl]-1-(3-nitrobenzyl)-3-(2,4-dimethylphenyl)urea] | 
78 | CCCCN(Cc1ccccc1)C(=O)Nc1ccc(C)cc1 [1-Benzyl-1-( -n-butyl)-3-(4-methylphenyl)urea] | 
95 | O=C(Nc1cc(Cl)c(Cl)cc1Cl)N(Cc1ccccc1)C(Cc1ccccc1)c1ccc(OCc2ccccc2)cc1 (stereo not drawn) [1-Benzyl-1-[2-phenyl-1-(4-benzyloxyphenyl)ethyl]-3-(2,4,5-trichlorophenyl)urea] | 
74.5 | CCCCc1ccc(CN(CCOCCO)C(=O)Nc2ccc(C)cc2C)cc1 [1-[(4-Butylphenyl)methyl]-3-(2,4-dimethylphenyl)-1-[2-(2-hydroxyethoxy)ethyl]urea] | 

More lines, now with the values behind:

Structure (SMILES) | inhibition at 5.2 µg/mL [1] [%] | other results
CCCCN(Cc1ccc(C)cc1)C(=O)Nc1ccc(C)cc1C [1-(n-Butyl)-1-(4-methylbenzyl)-3-(2,4-dimethylphenyl)urea] | 96.7 | 
CCCCN(Cc1ccc(Br)cc1)C(=O)Nc1ccc(C)cc1C [1-(4-Bromobenzyl)-1-(n-butyl)-3-(2,4-dimethylphenyl)urea] | 81 | 
Cc1ccc(CCN(Cc2ccc3c(c2)OCO3)C(=O)Nc2ccc(C)cc2C)cc1 [1-(3,4-Methylenedioxybenzyl)-1-[2-(4-methylphenyl)ethyl]-3-(2,4-dimethylphenyl)urea] | 41.2 | 
CCCCN(CCc1ccccc1)C(=O)Nc1ccc(C)cc1C [1-(n-Butyl)-1-(2-phenylethyl)-3-(2,4-dimethylphenyl)urea] | 87.9 | 
CCCCN(Cc1ccccc1)C(=O)Nc1cc(Cl)c(N)c(Cl)c1 [1-(n-Butyl)-1-benzyl-3-(4-amino-3,5-dichlorophenyl)urea] | 61.1 | 
CCCCCCCN(CCc1ccccc1)C(=O)Nc1cc(Cl)c(Cl)cc1Cl [1-(n-Heptyl)-1-(2-phenylethyl)-3-(2,4,5-trichlorophenyl)urea] | 77.3 | 
CC(C)(C)CCN(Cc1ccc(CC(C)(C)C)cc1)C(=O)Nc1c(F)cc(F)cc1F [1-[3,3-dimethylbutyl]-1-[[4-(2,2-dimethylpropyl)phenyl]methyl]-3-[2,4,6-trifluorophenyl]urea] |  | inhibition at 5.2 µg/mL: 90%
CCCCN(Cc1ccccc1F)C(=O)Nc1ccc(C)cc1C [1-( -n-Butyl)-1-(2-fluorobenzyl)-3-(2,4-dimethylphenyl)urea] | 83.6 | 
Cc1cc(Cl)cc(C)c1NC(=O)N(CCCCCC(C)O)Cc1ccc(CC(C)(C)C)cc1 (stereo not drawn) [1-(6-Hydroxyheptyl)-1-[4-(2,2-dimethylpropyl)benzyl]-3-(4-chloro-2,6-dimethylphenyl)urea] |  | IC50 (rat adrenal ACAT, several concentrations): 1130 nM
CCCCc1ccc(CN(CCCCCCOS(C)(=O)=O)C(=O)Nc2ccc(Cl)cc2C)cc1 [1-[(4-Butylphenyl)methyl]-3-(4-chloro-2-methylphenyl)-1-[6-[(methylsulfonyl)oxy]hexyl]urea] |  | inhibition at 5.2 µg/mL: 90%
CCCCN(Cc1ccccc1Cl)C(=O)Nc1ccc(C)cc1C [1-( -n-Butyl)-1-(2-chlorobenzyl)-3-(2,4-dimethylphenyl)urea] | 95.5 | 
CCCCCCOc1ccc(CN(CCCC)C(=O)Nc2c(C)cc(C)cc2C)cc1 [1-(n-Butyl)-1-(4-hexyloxybenzyl)-3-(2,4,6-trimethylphenyl)urea] | 97.1 | 
CCCCCOc1ccc(CN(Cc2ccc(CCCCC)cc2)C(=O)Nc2cccc(C(F)(F)F)c2)cc1 [1-(4-n-Pentylbenzyl)-1-(4-n-pentyloxybenzyl)-3-(3-trifluoromethylphenyl)urea] | 85 | 
Cc1ccc(CN(CCc2cccc(F)c2)C(=O)Nc2ccc(C)cc2C)cc1 [1-[2-(3-Fluorophenyl)ethyl]-1-(4-methylbenzyl)-3-(2,4-dimethylphenyl)urea] |  | inhibition at 5.2 µg/mL: 80.5%
CCCCCCCN(C(=O)Nc1cc(C)c(C)cc1C)c1ccco1 [1-(n-Heptyl)-1-(2-furyl)-3-(2,4,5-trimethylphenyl)urea] | 93.8 | 
CC(C)(C)CCN(Cc1ccc(Cl)cc1)C(=O)Nc1ccc(F)cc1F [1-(3,3-Dimethylbutyl)-1-(4-chlorobenzyl)-3-(2,4-difluorophenyl)urea] |  | inhibition at 5.2 µg/mL: 90%
CCCCCCCN(C(=O)Nc1c(Cl)cc(Cl)cc1Cl)c1ccco1 [1-(n-Heptyl)-1-(2-furyl)-3-(2,4,6-trichlorophenyl)urea] | 96.1 | 
CCCCCCCN(Cc1ccc(CCCC)cc1)C(=O)Nc1ccc(C(=O)O)cc1 [1-(n-Heptyl)-1-(4-n-butylbenzyl)-3-(4-carboxyphenyl)urea] | 61.8 | 
CCCCN(Cc1ccc(C(F)(F)F)cc1)C(=O)Nc1ccc(C)cc1C [1-(n-Butyl)-1-(4-trifluoromethylbenzyl)-3-(2,4-dimethylphenyl)urea] | 93.3 | 
CCCCN(Cc1ccc(-c2ccccc2)cc1)C(=O)Nc1ccc(C)cc1C [1-(n-Butyl)-1-(4-phenylbenzyl)-3-(2,4-dimethylphenyl)urea] | 97.1 | 
CCCCN(CCc1cccc(Br)c1)C(=O)Nc1ccc(C)cc1C [1-(n-Butyl)-1-[2-(3-bromophenyl)ethyl]-3-(2,4-dimethylphenyl)urea] | 97 | 
CCCCc1ccc(CN(CCC(C)(C)C)C(=O)Nc2cccc(C(F)(F)F)c2)cc1 [1-(3,3-Dimethylbutyl)-1-[4-(n-butyl)benzyl]-3-(3-trifluoromethylphenyl)urea] |  | inhibition at 5.2 µg/mL: 90%
CCCCN(Cc1ccccc1)C(=O)Nc1cc(Cl)ccc1O [1-(n-Butyl)-1-benzyl-3-(2-hydroxy-5-chlorophenyl)urea] | 85.6 | 

From US4623662A, “Antiatherosclerotic ureas and thioureas” (American Cyanamid Company, priority 1985, dated 1986)
